Experimental data: patent US20130184316A1, “METHODS FOR DIAGNOSING AND TREATING CONCUSSIVE DISORDERS” (priority 2010, published 2013)

Key:
downbeat nystagmus (DBN) = details: literature reports; cited from earlier work
[1] = system: patients with type-2 episodic ataxia (EA2); details: literature reports; cited from earlier work
subject with PCS [2] = assay: Videonystagmography (VNG); type: in vivo, human
Experimental: A single subject, prospective, double blind, placebo controlled trial of 4AP was then conducted in this individual. IRB approvals were obtained from all participating institutions and Subject gave written informed consent for all parts of the study. After a 4-week medication washout period, the Subject was randomly assigned a week's course of placebo, followed by a weeklong medication washout period, followed by another week on 4-AP (10 mg twice daily). Based on the medication half-life, a one week washout period was presumed to be sufficient. Subject and assessors were blinded to treatment allocation.
Measurements conducted at identical times at baseline and on each of the subsequent 3 weeks of the study included: • Balance and mobility assessed by Hi-Mat test (Arch. Phys. Med. Rehabil. 2006, 87(3), 437-442; hereby incorporated by reference in its entirety). • Subjective symptom assessment using the Rivermead Post-Concussion Questionnaire (Clin. Rehabil. 2005, 19(8), 878-887; hereby incorporated by reference in its entirety). • Neuropsychological assessment, consisting of the digit span and cancellation tests from the Wechsler Adult Intelligence Scale, 4th edition (Coalson, D. L., Engi-Raiford, S. Wechsler Adult Intelligence Scale, 4th Ed., in Technical and Interpretive Manual, 4th Ed., San Antonio: Pearson (2008); hereby incorporated by reference in its entirety), the California Verbal Learning Test II (CVLT) (Delis, D. C., Kramer, J. H., Kaplan, E., Ober, B. A. in CVLT-II Manual, San Antonio: The Psychological Corporation (2000); hereby incorporated by reference in its entirety), the Verbal Fluency Test (Connors Continuous Performance Test Computer II Program Version 5 Users Manual, Toronto: Multi-Health Systems, Inc. (2002); hereby incorporated by reference in its entirety), and the Connors Continuous Performance Test (J. Nervous Ment. Dis. 1985, 173(6), 353-357; hereby incorporated by reference in its entirety). • Videonystagmography (VNG) and rotary chair (RC) vestibular testing
Based on the observation of significant central findings on videonystagmography and rater-observed reduction in abnormal movements while on the active medication, the Subject was asked to return for 2 additional rounds of open-label testing, 5 and 9 weeks after conclusion of the formal study. The Subject resumed taking 4AP 10 mg twice daily immediately after the conclusion of the blinded testing.

subject with PCS [3] = assay: PCS Symptom Cluster Scale, weighted point system; type: in vivo, human; set-up: key to Raw score: Vertigo / Raw score: Persistence or perseveration of proprioceptive sensations (e.g., feeling motion after coming to rest) / Raw score: Diplopia / Raw score: Impairment of gait: 0 never, 1 sometimes, 2 often, 3 always/nearly always present; key to Weighted Score: Vertigo / Weighted Score: Insomnia / Weighted Score: Difficulty in standing for more than 5 minutes: raw frequency score (0-3) multiplied by weight factor; details: after therapy with 4-AP
Source text: In one embodiment, a point system is presented in which symptoms from each cluster are further assigned a point value. The evaluation should rate the frequency of each symptom over the span of about one week prior to the assessment, according to the following scale: 0—Never present, 1—Sometimes present, 2—Often present, 3—Always or Nearly always present. In this context, occurrence of a symptom from about 1 to 5 times per week would classify as sometimes present, occurrence from about 5 to about 10 times per week would classify as often present, and occurrence about 10 or more times per week would classify as always or nearly always present. The rating number for each item should be recorded as the raw score. Each raw score should then be multiplied by the weight factor to obtain the weighted score.
To achieve this goal, a point system was applied to discrete symptoms within symptom Clusters to specifically define a class of PCS patient that will be likely to benefit from treatment from 4-AP. According to the weighted point system, symptoms from each cluster are further assigned a point value. The frequency of each symptom over the span of about one week prior to the assessment was rated according to the following scale: 0—Never present, 1—Sometimes present, 2—Often present, 3—Always or Nearly always present. The rating number for each item was recorded as the raw score, and the raw score was then multiplied by the weight factor to obtain the weighted score.

[4] = system: multiple sclerosis patients; details: orally administered, over a period of days, literature; cited from earlier work
[5] = Cluster A, raw score x weight 1, prior to therapy 3
[6] = Cluster A, raw score x weight 3, prior to therapy 6
[7] = Cluster B, raw score x weight 4, prior to therapy 8
[8] = Cluster C, raw score x weight 2, prior to therapy 2
[9] = Cluster C, raw score x weight 3, prior to therapy 9

## Nc1ccncc1 [4-AP, 4-Amino pyridine]
Downbeat nystagmus (DBN)
  Downbeat nystagmus (DBN): relieve downbeat nystagmus
[1]
  Symptoms of EA2 (including downbeat nystagmus): both relieved and prevented
Subject with PCS [2]; test 4 (Active, 4-AP 10 mg twice daily), tests 1-3: 6, 2, 2
  Head left positioning, left beating non-fatiguing nystagmus: 4 degrees/second
Subject with PCS [2]; test 5 (1st open-label round, 4AP 10 mg twice daily)
  Head left position, left beating non-fatiguing nystagmus: 2 degrees/second
Subject with PCS [2]; test 6 (2nd open-label round, 4AP 10 mg twice daily), immediate on tests 1-4
  Delay of onset of left beating nystagmus in left dix hallpike position: 50 s
Subject with PCS [2]; tests 1-4, including active phase
  Down beating nystagmus with head tilted down: present
Subject with PCS [3]; Cluster A, prior to therapy 0
  Raw score: Difficulty in standing for more than 5 minutes: 0
Subject with PCS [3]; Cluster A, prior to therapy 1
  Raw score: Difficulty moving body position (e.g., from chair to bed or toilet): 0
Subject with PCS [3]; Cluster A, prior to therapy 2
  Raw score: Difficulty maintaining balance while looking over shoulder: 0
  Raw score: Difficulty rising unaided from a sitting position or from sitting on the floor: 0
  Raw score: Impairment of gait: 0
  Raw score: Inability to maintain stability while standing with eyes closed or with feet together: 1 (Sometimes present)
Subject with PCS [3]; Cluster A, prior to therapy 3
  Raw score: Difficulty conversing while walking: 1 (Sometimes present)
  Raw score: Difficulty tossing objects from hand to hand while walking: 1 (Sometimes present)
  Raw score: Inability to maintain heel-to-toe gait: 1 (Sometimes present)
Subject with PCS [3]; Cluster A, raw score x weight 1, prior to therapy 1
  Weighted Score: Difficulty moving body position (e.g., from chair to bed or toilet): 0
Subject with PCS [3]; Cluster A, raw score x weight 1, prior to therapy 2
  Weighted Score: Difficulty rising unaided from a sitting position or from sitting on the floor: 0
Subject with PCS [3]; [5]
  Weighted Score: Difficulty tossing objects from hand to hand while walking: 1
  Weighted Score: Inability to maintain heel-to-toe gait: 1
Subject with PCS [3]; Cluster A, raw score x weight 2, prior to therapy 0
  Weighted Score: Difficulty in standing for more than 5 minutes: 0
Subject with PCS [3]; Cluster A, raw score x weight 2, prior to therapy 4
  Weighted Score: Difficulty maintaining balance while looking over shoulder: 0
Subject with PCS [3]; [6]
  Weighted Score: Impairment of gait: 0
  Weighted Score: Inability to maintain stability while standing with eyes closed or with feet together: 3
Subject with PCS [3]; Cluster A, raw score x weight 3, prior to therapy 9
  Weighted Score: Difficulty conversing while walking: 3
Subject with PCS [3]; Cluster B, prior to therapy 2
  Raw score: Oscillopsia (perception of stationary objects moving): 0
  Raw score: Persistence or perseveration of proprioceptive sensations (e.g., feeling motion after coming to rest): 0
  Raw score: Persistent sensation of walking on soft or moving surface: 0
  Raw score: Vertigo: 0
  Raw score: Vestibular seizures: 0
Subject with PCS [3]; Cluster B, prior to therapy 3
  Raw score: Persistent sensation of being off-balance or tilted: 1 (Sometimes present)
Subject with PCS [3]; Cluster B, raw score x weight 2, prior to therapy 6
  Weighted Score: Vertigo: 0
Subject with PCS [3]; Cluster B, raw score x weight 3, prior to therapy 6
  Weighted Score: Persistent sensation of walking on soft or moving surface: 0
Subject with PCS [3]; [7]
  Weighted Score: Oscillopsia (perception of stationary objects moving): 0
  Weighted Score: Persistence or perseveration of proprioceptive sensations (e.g., feeling motion after coming to rest): 0
Subject with PCS [3]; Cluster B, raw score x weight 4, prior to therapy 12
  Weighted Score: Persistent sensation of being off-balance or tilted: 4
Subject with PCS [3]; Cluster B, raw score x weight 5, prior to therapy 10
  Weighted Score: Vestibular seizures: 0
Subject with PCS [3]; Cluster C, prior to therapy 1
  Raw score: Apathy, listlessness, blunting of affect: 0
  Raw score: Emotional lability or exaggerated emotions: 0
  Raw score: Persistent or frequent irritability: 0
Subject with PCS [3]; Cluster C, prior to therapy 2
  Raw score: Persisting difficulty with registration or retention of newly presented information in any modality: 1 (Sometimes present)
Subject with PCS [3]; Cluster C, prior to therapy 3
  Raw score: Inability to perform two simple tasks concurrently (multitasking): 1 (Sometimes present)
  Raw score: Inability to tolerate distraction (e.g., inability to complete simple task or resume conversation after interruption): 1 (Sometimes present)
  Raw score: Intolerance of noise, light, or commotion: 1 (Sometimes present)
  Raw score: Slowed speed of mental processing or responding: 0
Subject with PCS [3]; [8]
  Weighted Score: Apathy, listlessness, blunting of affect: 0
  Weighted Score: Emotional lability or exaggerated emotions: 0
  Weighted Score: Persistent or frequent irritability: 0
Subject with PCS [3]; Cluster C, raw score x weight 2, prior to therapy 4
  Weighted Score: Persisting difficulty with registration or retention of newly presented information in any modality: 2
Subject with PCS [3]; Cluster C, raw score x weight 2, prior to therapy 6
  Weighted Score: Slowed speed of mental processing or responding: 0
Subject with PCS [3]; [9]
  Weighted Score: Inability to perform two simple tasks concurrently (multitasking): 3
  Weighted Score: Inability to tolerate distraction (e.g., inability to complete simple task or resume conversation after interruption): 3
Subject with PCS [3]; Cluster C, raw score x weight 4, prior to therapy 12
  Weighted Score: Intolerance of noise, light, or commotion: 4
Subject with PCS [3]; Cluster D, prior to therapy 0
  Raw score: Diplopia: 0
Subject with PCS [3]; Cluster D, prior to therapy 1
  Raw score: Headache: 2 (Often present)
  Raw score: Nystagmus: 0
Subject with PCS [3]; Cluster D, prior to therapy 2
  Raw score: Anergy, chronic fatigue, hypersomnia: 0
  Raw score: Insomnia: 2 (Often present)
Subject with PCS [3]; Cluster D, prior to therapy 3
  Raw score: Difficulty in accommodation or focus: 1 (Sometimes present)
  Raw score: Impairment of tracking an object in motion: 0
Subject with PCS [3]; Cluster D, raw score x weight 1, prior to therapy 2
  Weighted Score: Insomnia: 2
Subject with PCS [3]; Cluster D, raw score x weight 2, prior to therapy 0
  Weighted Score: Diplopia: 0
Subject with PCS [3]; Cluster D, raw score x weight 2, prior to therapy 2
  Weighted Score: Headache: 4
Subject with PCS [3]; Cluster D, raw score x weight 3, prior to therapy 6
  Weighted Score: Anergy, chronic fatigue, hypersomnia: 0
Subject with PCS [3]; Cluster D, raw score x weight 3, prior to therapy 9
  Weighted Score: Difficulty in accommodation or focus: 3
Subject with PCS [3]; Cluster D, raw score x weight 4, prior to therapy 4
  Weighted Score: Nystagmus: 0
Subject with PCS [3]; Cluster D, raw score x weight 4, prior to therapy 12
  Weighted Score: Impairment of tracking an object in motion: 0
Subject with PCS [3]; prior to therapy 165
  Total weighted score of symptoms: 33 points
[4]
  Restoring nerve impulse transmission: mild to moderate improvements
